Tests used:
Format in all cases: functional
[1] = system: HCT-116; assay: Cytotoxicity against human HCT116 cells
[2] = system: SF-539; assay: Cytotoxicity against human SF539 cells
[3] = system: UACC-62; assay: Cytotoxicity against human UACC62 cells
[4] = system: DU-145; assay: Cytotoxicity against human DU145 cells
[5] = system: OVCAR-3; assay: Cytotoxicity against human OVCAR-3 cells
[6] = system: SN12C; assay: Cytotoxicity against human SN12C cells
[7] = system: MDA-MB-435; assay: Cytotoxicity against human MDA-MB-435 cells
[8] = system: HOP-62; assay: Cytotoxicity against human HOP62 cells

COc1cc2c3c(n(CCCN)c(=O)c2cc1OC)-c1ccccc1C3=O was tested, and the GI50 [1] was < 0.01 µM, the GI50 [2] was 2.82 µM and the GI50 [3] was 2.88 µM. The GI50 [4] was 2.63 µM, the GI50 [5] was 0.085 µM and the GI50 [6] was 0.794 µM. For the same compound, the GI50 [7] was 0.631 µM and the GI50 [8] was 0.151 µM.

In the case of CSc1ccc2c(c1)C(=O)c1c-2n(CCCN)c(=O)c2cc([N+](=O)[O-])ccc12, the GI50 [1] is reported as 0.023 µM, the GI50 [2] is reported as < 0.01 µM and the GI50 [3] is reported as < 0.01 µM. The GI50 [4] was < 0.01 µM, the GI50 [5] was 0.17 µM and the GI50 [6] was 0.162 µM. For the same compound, the GI50 [7] was 0.204 µM and the GI50 [8] was < 0.01 µM.

For CCc1ccc2c(c1)C(=O)c1c-2n(CCCN)c(=O)c2cc([N+](=O)[O-])ccc12, the GI50 [1] was 0.575 µM, the GI50 [2] was 1.58 µM and the GI50 [3] was 1.48 µM. It also gave a GI50 [4] of 0.776 µM, a GI50 [5] of 1.58 µM and a GI50 [6] of 1.48 µM. It also gave a GI50 [7] of 1.55 µM and a GI50 [8] of 1.38 µM.

COc1cc2c3c(n(CCCN=[N+]=[N-])c(=O)c2cc1OC)-c1ccc(NC(C)=O)cc1C3=O was tested, and the GI50 [1] was 50.1 µM, the GI50 [2] was 50.1 µM and the GI50 [3] was 50.1 µM. The GI50 [4] was 50.1 µM, the GI50 [5] was 50.1 µM and the GI50 [6] was 50.1 µM. It also gave a GI50 [7] of 50.1 µM and a GI50 [8] of 50.1 µM.

N#Cc1ccc2c(c1)C(=O)c1c-2n(CCCCl)c(=O)c2cc([N+](=O)[O-])ccc12 gave a GI50 [1] of 1.82 µM, a GI50 [2] of 2.63 µM and a GI50 [3] of 1.12 µM. It also gave a GI50 [4] of 2.75 µM, a GI50 [5] of 8.71 µM and a GI50 [6] of 5.89 µM. The GI50 [7] was > 100 µM and the GI50 [8] was 2.57 µM.

O=C1c2cc(Cl)ccc2-c2c1c1ccc([N+](=O)[O-])cc1c(=O)n2CCCBr gave a GI50 [1] of 3.47 µM, a GI50 [2] of 3.72 µM and a GI50 [3] of 3.47 µM. It also gave a GI50 [4] of 3.98 µM, a GI50 [5] of 36.3 µM and a GI50 [6] of 2.51 µM. It also gave a GI50 [7] of 14.8 µM and a GI50 [8] of 2.45 µM.

With NCCCn1c2c(c3ccc([N+](=O)[O-])cc3c1=O)C(=O)c1cc(I)ccc1-2 the GI50 [1] was < 0.01 µM, the GI50 [2] was 0.044 µM and the GI50 [3] was < 0.01 µM. For the same compound, the GI50 [4] was < 0.01 µM, the GI50 [5] was 1.2 µM and the GI50 [6] was < 0.01 µM. For the same compound, the GI50 [7] was 0.224 µM and the GI50 [8] was 0.021 µM.

For COc1cc2c3c(n(CCCN=[N+]=[N-])c(=O)c2cc1OC)-c1ccc(C#N)cc1C3=O, the GI50 [1] was 24 µM, the GI50 [2] was 17.4 µM and the GI50 [3] was 12.3 µM. The GI50 [4] was 33.9 µM, the GI50 [5] was 17 µM and the GI50 [6] was 15.5 µM. For the same compound, the GI50 [7] was > 100 µM and the GI50 [8] was 14.1 µM.

Compound COc1ccc2c(c1)C(=O)c1c-2n(CCCN)c(=O)c2cc(OC)c(OC)cc12 has a GI50 [1] of 0.054 µM, a GI50 [2] of 0.115 µM and a GI50 [3] of 0.427 µM. For the same compound, the GI50 [4] was < 0.01 µM, the GI50 [5] was 0.389 µM and the GI50 [6] was 0.141 µM. For the same compound, the GI50 [7] was 1.7 µM and the GI50 [8] was < 0.01 µM.

With COC(=O)OCc1ccc2c(c1)C(=O)c1c-2n(CCCBr)c(=O)c2cc([N+](=O)[O-])ccc12 the GI50 [1] was 81.3 µM, the GI50 [2] was 56.2 µM and the GI50 [3] was 33.9 µM. For the same compound, the GI50 [4] was > 100 µM, the GI50 [5] was > 100 µM and the GI50 [6] was > 100 µM. For the same compound, the GI50 [7] was > 100 µM and the GI50 [8] was 27.5 µM.

In the case of COc1ccc2c(c1)C(=O)c1c-2n(CCCCl)c(=O)c2cc(OC)c(OC)cc12, the GI50 [1] is reported as 8.32 µM, the GI50 [2] is reported as 6.76 µM and the GI50 [3] is reported as 3.02 µM. For the same compound, the GI50 [4] was 4.07 µM, the GI50 [5] was 70.8 µM and the GI50 [6] was 5.5 µM. It also gave a GI50 [7] of 37.2 µM and a GI50 [8] of 4.07 µM.

Work on COC(=O)c1ccc2c(c1)C(=O)c1c-2n(CCCN=[N+]=[N-])c(=O)c2cc([N+](=O)[O-])ccc12 yielded a GI50 [1] of 47.9 µM, a GI50 [2] of 53.7 µM and a GI50 [3] of 37.1 µM. For the same compound, the GI50 [4] was 70.8 µM, the GI50 [5] was > 100 µM and the GI50 [6] was > 100 µM. For the same compound, the GI50 [7] was > 100 µM and the GI50 [8] was 25.7 µM.

In the case of COC(=O)c1ccc2c(c1)C(=O)c1c-2n(CCCN=[N+]=[N-])c(=O)c2cc(OC)c(OC)cc12, the GI50 [1] is reported as > 100 µM, the GI50 [2] is reported as > 100 µM and the GI50 [3] is reported as > 100 µM. For the same compound, the GI50 [4] was > 100 µM, the GI50 [5] was > 100 µM and the GI50 [6] was > 100 µM. The GI50 [7] was > 100 µM and the GI50 [8] was > 100 µM.

From ChEMBL document CHEMBL1148751, “Optimization of the indenone ring of indenoisoquinoline topoisomerase I inhibitors” (2007)
